Measurements from ChEMBL document CHEMBL5647694, “Novel orally bioavailable EZH1/2 dual inhibitors with greater antitumor efficacy than an EZH2 selective inhibitor” (Cancer Sci, 2017).

Legend:
[1] = target: Leukocyte tyrosine kinase receptor (Homo sapiens) (UniProt P29376); assay: Inhibition of N-terminal GST-tagged human LTK catalytic domain (498 to 796 residues) expressed in baculovirus-infected Sf21 cells using Srctide as substrate at 1 uM in presence of ATP by Mobility shift assay
[2] = target: Serine/threonine-protein kinase pim-1 (Homo sapiens) (UniProt P11309); assay: Inhibition of N-terminal His-tagged full length human PIM1 (1 to 313 residues) expressed in baculovirus expression system using S6K2 peptide as substrate at 1 uM in presence of ATP by Mobility shift assay
[3] = target: Protein kinase C alpha type (Homo sapiens) (UniProt P17252); assay: Inhibition of N-terminal GST-fused human full length PKC-alpha (1 to 672 residues ) expressed in baculovirus expression system using PKC peptide as substrate at 1 uM in presence of ATP by Mobility shift assay
[4] = target: Tyrosine-protein kinase Blk (Homo sapiens) (UniProt P51451); assay: Inhibition of N-terminal GST-fused full length human BLK (1 to 505 residues) expressed in baculovirus-infected Sf21 cells using Srctide as substrate at 1 uM in presence of ATP by Mobility shift assay
[5] = target: Ephrin type-B receptor 4 (Homo sapiens) (UniProt P54760); assay: Inhibition of N-terminal GST-fused human EPHB4 cytoplasmic domain (577 to 987 residues) expressed in baculovirus-infected Sf21 cells using Blk/Lyntide as substrate at 1 uM in presence of ATP by Mobility shift assay
[6] = target: Fibroblast growth factor receptor 2 (Homo sapiens) (UniProt P21802); assay: Inhibition of N-terminal GST-fused human FGFR2 cytoplasmic domain (399 to 821 residues) expressed in baculovirus-infected Sf21 cells using CSKtide as substrate at 1 uM in presence of ATP by Mobility shift assay
[7] = target: Serine/threonine-protein kinase Chk2 (Homo sapiens) (UniProt O96017); assay: Inhibition of N-terminal GST-fused full length human CHK2 (1 to 543 residues) expressed in baculovirus expression system using CHKtide as substrate at 1 uM in presence of ATP by Mobility shift assay
[8] = target: Macrophage-stimulating protein receptor (Homo sapiens) (UniProt Q04912); assay: Inhibition of N-terminal GST-tagged human RON cytoplasmic domain (979 to 1400 residues) expressed in baculovirus-infected Sf21 cells using Srctide as substrate at 1 uM in presence of ATP by Mobility shift assay
[9] = target: Serine/threonine-protein kinase 26 (Homo sapiens) (UniProt Q9P289); assay: Inhibition of N-terminal GST-fused full length human MST4 (1 to 416 residues) expressed in baculovirus expression system using Moesin-derived peptide as substrate at 1 uM in presence of ATP by Mobility shift assay
[10] = target: Casein kinase I isoform gamma-3 (Homo sapiens) (UniProt Q9Y6M4); assay: Inhibition of N-terminal GST-fused full length human CK1gamma3 (1 to 447 residues) expressed in baculovirus expression system using CKtide as substrate at 1 uM in presence of ATP by Mobility shift assay
[11] = target: Mitogen-activated protein kinase 14 (Homo sapiens) (UniProt Q16539); assay: Inhibition of N-terminal GST-fused truncated human p38alpha (9 to 352 residues) expressed in Escherichia coli expression system using Modified Erktide as substrate at 1 uM in presence of ATP by Mobility shift assay
[12] = target: Ribosomal protein S6 kinase alpha-4 (Homo sapiens) (UniProt O75676); assay: Inhibition of N-terminal GST-fused full length human MSK2 (1 to 772 residues) expressed in baculovirus expression system using Crosstide as substrate at 1 uM in presence of ATP by Mobility shift assay
[13] = target: Insulin-like growth factor 1 receptor (Homo sapiens) (UniProt P08069); assay: Inhibition of N-terminal GST-fused human IGF1R cytoplasmic domain (959 to 1367 residues) expressed in baculovirus-infected Sf21 cells using IRS1 as substrate at 1 uM in presence of ATP by Mobility shift assay
[14] = target: Serine/threonine-protein kinase D3 (Homo sapiens) (UniProt O94806); assay: Inhibition of N-terminal GST-fused full length human PKD3 (1 to 890 residues) expressed in baculovirus expression system using GS peptide as substrate at 1 uM in presence of ATP by Mobility shift assay
[15] = target: Protein kinase C eta type (Homo sapiens) (UniProt P24723); assay: Inhibition of N-terminal GST-fused human full length PKC-eta (1 to 683 residues ) expressed in baculovirus expression system using PKC peptide as substrate at 1 uM in presence of ATP by Mobility shift assay
[16] = target: Inhibitor of nuclear factor kappa-B kinase subunit beta (Homo sapiens) (UniProt O14920); assay: Inhibition of N-terminal His-tagged truncated human IKK-beta (1 to 662 residues) expressed in baculovirus expression system using Modified IkBalpha-derived peptide as substrate at 1 uM in presence of ATP by Mobility shift assay
[17] = target: Insulin receptor-related protein (Homo sapiens) (UniProt P14616); assay: Inhibition of N-terminal fused human IRR cytoplasmic domain (953 to 1297 residues) expressed in baculovirus-infected Sf21 cells using IRS1 as substrate at 1 uM in presence of ATP by Mobility shift assay
[18] = target: Tyrosine-protein kinase Mer (Homo sapiens) (UniProt Q12866); assay: Inhibition of N-terminal GST-tagged human MER cytoplasmic domain (528 to 999 residues) expressed in baculovirus-infected Sf21 cells using CSKtide as substrate at 1 uM in presence of ATP by Mobility shift assay
[19] = target: Ephrin type-A receptor 3 (Homo sapiens) (UniProt P29320); assay: Inhibition of N-terminal GST-fused human EPHA3 cytoplasmic domain (579 to 983 residues) expressed in baculovirus-infected Sf21 cells using Blk/Lyntide as substrate at 1 uM in presence of ATP by Mobility shift assay
[20] = target: Receptor tyrosine-protein kinase erbB-2 (Homo sapiens) (UniProt P04626); assay: Inhibition of N-terminal His-tagged human HER2 cytoplasmic domain (676 to 1255 residues) expressed in baculovirus-infected Sf21 cells using Srctide as substrate at 1 uM in presence of ATP by Mobility shift assay
[21] = target: Serine/threonine-protein kinase PLK2 (Homo sapiens) (UniProt Q9NYY3); assay: Inhibition of N-terminal GST-fused full length human PLK2 (1 to 685 residues) expressed in baculovirus expression system using CHK2 peptide as substrate at 1 uM in presence of ATP by IMAP
[22] = target: Casein kinase I isoform epsilon (Homo sapiens) (UniProt P49674); assay: Inhibition of N-terminal GST-fused human CK1-epsilon catalytic domain (1 to 348 residues) expressed in baculovirus expression system using CKtide as substrate at 1 uM in presence of ATP by Mobility shift assay
[23] = target: Serine/threonine-protein kinase BRSK1 (Homo sapiens) (UniProt Q8TDC3); assay: Inhibition of N-terminal GST-tagged full length human BRSK1 (1 to 778 residues) expressed in baculovirus-infected Sf21 cells using CHKtide as substrate at 1 uM in presence of ATP by Mobility shift assay

Row | Compound | inhibition [1] [%] | inhibition [2] [%] | inhibition [3] [%] | inhibition [4] [%] | inhibition [5] [%] | inhibition [6] [%] | inhibition [7] [%] | inhibition [8] [%] | inhibition [9] [%] | inhibition [10] [%] | inhibition [11] [%] | inhibition [12] [%] | inhibition [13] [%] | inhibition [14] [%] | inhibition [15] [%] | inhibition [16] [%] | inhibition [17] [%] | inhibition [18] [%] | inhibition [19] [%] | inhibition [20] [%] | also measured
1 | Cc1cc(C)c(CNC(=O)c2cc(Cl)c3c(c2C)O[C@@](C)([C@H]2CC[C@H](N(C)C)CC2)O3)c(=O)[nH]1 [VALEMETOSTAT] | 0.1 | 17.1 | 24 | -5 | -4.7 | -4 | -2.2 | -3.5 | 0.8 | 0.5 | -8 | -2 | -4.5 | 3.5 | 19.8 | -1.8 | -4.6 | -1.6 | -4.8 | 5.6 | inhibition [21]: 4.8%; inhibition [22]: -2.2%; inhibition [23]: -3.6%
2 | Cc1cc(C)c(CNC(=O)c2cc(Br)c3c(c2C)O[C@@](C)([C@H]2CC[C@H](N(C)C)CC2)O3)c(=O)[nH]1 | -3.2 | 1.3 | 4.7 | -3.1 | -6.1 | -2.6 | 0.7 | -4.9 | -0.1 | 1.1 | -7.2 | 0.1 | -2.9 | 6.7 | 10.8 | 2.1 | -8.8 | -1.5 | -8.6 | 6 | inhibition [21]: 11.8%; inhibition [22]: 1.5%; inhibition [23]: -1.9%
